Experimental data reported in US11203583B2, “Prodrug and profluorescent compounds for selective mitochondrial imaging and therapeutic targeting” (ARIZONA BOARD OF REGENTS ON BEHALF OF ARIZONA STATE …, priority 2016, dated 2021).
“Also recorded” adds a separate entry of the source.

Tests used:
E. coli nitroreductase = E. coli nitroreductase (Escherichia coli, UniProt P38489); assay: Cell-free activation of profluorescent probes by purified E. coli nitroreductase (fluorescence monitoring); assay type: biochemical
E. coli nitroreductase, sequence (P38489 whole entry): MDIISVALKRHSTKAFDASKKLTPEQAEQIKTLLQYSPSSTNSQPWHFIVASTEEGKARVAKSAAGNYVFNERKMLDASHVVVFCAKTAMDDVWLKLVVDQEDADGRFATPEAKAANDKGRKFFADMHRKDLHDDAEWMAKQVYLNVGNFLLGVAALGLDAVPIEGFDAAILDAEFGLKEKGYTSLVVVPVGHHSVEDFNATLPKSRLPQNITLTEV
Source text: (§1) The strategy for the release of the fluorescent NIR dye from a non-fluorescent precursor via mitochondrial nitroreductase-mediated reduction involved successive reduction, then elimination (FIG. 5b). The use of ortho, meta and para substituted probes (2a-2c) was crucial because it enabled the investigation of the proposed transformation in greater detail. […] To assess the viability of these probes for the detection of nitroreductase activity, we first validated the probes in a cell free system using purified E. coli nitroreductase. Probes 2a-c (10 μM) were incubated in PBS buffer, pH 7.4, containing 0.5 mM NADH. After a short time, during which no fluorescence was observed, the nitroreductase was added (1 μg mL^−1) and the development of fluorescence was monitored as a function of time (FIGS. 6b, 6c). […] This confirms that the released fluorescent dye is effectively of the QCy7 type by comparison with an authentic standard prepared by chemical synthesis (FIG. 13). With the viability of this probe thus confirmed, we carried out microscopy experiments employing A549 cancer cells. The incubation of 10 μM 2c with the cells for 4 hours was followed by the addition of […] mitotracker green (40-minute incubation). […] The green channel (FIG. 7b) illustrates visualization of the mitochondria by mitotracker green. […] For 2b this is understandable as no elimination process is possible, as confirmed during the in vitro tests. In the case of 2a, we assume that the low kinetics of the reduction (c.f. FIG. 6b) is probably the cause of the absence of a strong signal. […]
A solution of fluorogenic probe was prepared in 1 mL of phosphate buffered saline (PBS) and 150 μL of the resulting solution was transferred into a quartz fluorescence cell. […] After excitation at 572 nm the emission of the released fluorophore was monitored at 703 nm over time with measurements recorded every 1 sec. After 100 sec of incubation, 1.51 μL of a 1 mg mL^−1 solution of E. coli nitroreductase in water was added in the quartz fluorescence cell and the solution was mixed as the monitoring proceeded.

DT diaphorase = DT diaphorase (Homo sapiens, UniProt P15559); assay: Selectivity of probe activation: DT diaphorase versus nitroreductase; assay type: biochemical; details: 10 μM 2c, 1 μg mL^-1 DTD or NTR, 10 mM PBS pH 7.4, 20 min, 25° C.
DT diaphorase, sequence (P15559 whole entry, species assumed): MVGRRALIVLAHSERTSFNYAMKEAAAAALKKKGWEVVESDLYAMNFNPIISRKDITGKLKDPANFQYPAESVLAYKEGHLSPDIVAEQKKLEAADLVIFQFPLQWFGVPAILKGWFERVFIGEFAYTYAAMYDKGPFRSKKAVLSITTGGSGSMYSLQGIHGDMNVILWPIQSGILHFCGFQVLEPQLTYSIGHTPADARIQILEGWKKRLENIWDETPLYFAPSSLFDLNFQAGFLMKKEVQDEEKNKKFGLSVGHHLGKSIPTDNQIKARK
Method: FIGS. 6A-6D. (a) Selective activation of 2c in vitro by E. coli nitroreductase. (b) Time dependent fluorescence emission by 2a, 2b and 2c (excitation at 572 nm; emission at 703 nm) in PBS at 25° C. following treatment with E. coli NTR (1 μg mL^−1) and 0.5 mM NADH. (c) Absorbance spectrum evolution with time during incubation of probe 2c in […] PBS buffer, pH 7.4, with E. coli NTR (1 μg mL^−1) and 0.5 mM NADH. (d) Development of fluorescence from 10 μM 2c following treatment with 1 μg mL^−1 DT diaphorase (DTD) or nitroreductase (NTR) in 10 mM PBS buffer, pH 7.4, for 20 min at 25° C. with or without […] NADH.
The strategy for the release of the fluorescent NIR dye from a non-fluorescent precursor via mitochondrial nitroreductase-mediated reduction involved successive reduction, then elimination (FIG. 5b). The use of ortho, meta and para substituted probes (2a-2c) was crucial because it enabled the investigation of the proposed transformation in greater detail. […] To assess the viability of these probes for the detection of nitroreductase activity, we first validated the probes in a cell free system using purified E. coli nitroreductase. […] After a short time, during which no fluorescence was observed, the nitroreductase was added (1 μg mL^−1) and the development of fluorescence was monitored as a function of time (FIGS. 6b, 6c). […]

[1] = test system: mitochondrial nitroreductase in live A549 cells; assay: Fluorescence microscopy: activation of probes 2a, 2b and 2c in live A549 cells; assay type: cell-based, human
Source text: as §1
Fluorescence images were acquired using a Zeiss Axiovert 200M inverted microscope fitted with an AxioCam MRm camera equipped with a 300 W xenon lamp (Sutter, Novato, Calif.), and Texas red and FITC filters (Chroma, Bellows Falls, Vt.). […] Thereafter, all images were recorded and the target cells counted using a 40× oil objective. […] Pixel intensity was quantified using AxioVision release 4.7 version software, and the mean pixel intensity was generated as gray level. […]

[2] = Relative fluorescence quantum yield; assay type: physicochemical
Method: All experiments requiring anhydrous conditions were conducted in flame-dried glassware fitted with a rubber septum under a positive pressure of dry argon. Reactions were performed at room temperature unless otherwise indicated. Analytical thin layer chromatography was performed using glass plates pre-coated with silica gel (0.25 mm, 60 Å pore size, 230-400 mesh, Silicycle) impregnated with a fluorescent indicator (254 nm). TLC plates were visualized by exposure to ultraviolet light (UV) or by staining using […]. Flash column chromatography was performed employing silica gel (60 Å pore size, 40-63 μm, standard grade, Silicycle). Fluorescence quantum yields were measured at 25° C. by a relative method using cresyl violet (CV, ΦF=56% in EtOH) as a standard.^1 The following equation was used to determine the relative fluorescence quantum yield: ΦF(x)=(AS/AX)(FX/FS)(nX/nS)^2ΦF(s) where A is the absorbance (in the range of 0.01-0.1 A.U.), F is the area under the emission curve, n is the refractive index of the solvents (at 25° C.) used in measurements, and the subscripts s and x represent standard and unknown, respectively. The following refractive index values were used: 1.362 for EtOH and 1.337 for PBS.

[3] = test system: NADH oxidase (mitochondrial respiratory complexes I, III, and IV); assay: NADH oxidase activity assay in bovine heart submitochondrial particles; assay type: biochemical; details: for NADH oxidase inhibitory activity (qualitative comparison): 0.05, 0.1 and 0.5 μM concentrations, FIG. 9a
Method: The effect of compounds AMA, 4a and 4b on NADH oxidase activity were evaluated using bovine heart mitochondria. The bovine heart mitochondria and bovine heart submitochondrial particles (SMPs) were prepared as described.^2 The SMPs were diluted to 0.5 mg/mL, and the test compounds were assayed at 25° C. and monitored spectrophotometrically using a Beckman Coulter DU-530 spectrometer (340 nm, c 6.22 mM^−1 cm^−1). NADH oxidase activity was determined in 1 mL of 50 mM Hepes buffer containing 5 mM MgCl2, pH 7.5. The final mitochondrial protein concentration was 30 μg/mL. The initial rates of NADH oxidation were calculated from the linear portion of the traces. Data are reported as the mean of three independent experiments each run in triplicate.

[4] = test system: mitochondrial nitroreductase in live A549 cells; assay: Fluorescence microscopy: activation of prodrugs 4a and 4b (AMA release) in live A549 cells; assay type: cell-based, human; details: 25 μM; for localization of AMA fluorescence relative to mitochondria in A549 cells: MitoTracker Green FM; for release of AMA (appearance of AMA fluorescence, λem ~425 nm) in live A549 cells: 4 hours
Method: The finding of nitroreductase activity associated with the mitochondria of human cells encouraged us to design a new prodrug based on the mitochondrial poison antimycin A (AMA). It has recently been noted that AMA is toxic only at relatively high concentration,^19 plausibly due to a lack of facile access to the mitochondria. […] Accordingly, 0-p-nitrobenzyl-AMA (4a) was prepared in good yield by alkylation of AMA (FIG. 8a). Also prepared as a control was O-benzyl-AMA (4b). […] Accordingly, it is possible to monitor the release of AMA within the mitochondria after enzymatic reduction of the nitro moiety in 4a.
Fluorescence microscopy images were acquired using a Zeiss Axiovert 200M inverted microscope fitted with an AxioCam MRm camera equipped with a 300 W xenon lamp (Sutter, Novato, Calif., USA), and DAPI (blue channel) and Texas red (red channel) filters (Chroma, Bellows Falls, Vt., USA). A549 cells were grown on glass bottom microwell disks (MatTek Corporation, MA, USA) at a cell density of 10000 cells/well at 37° C. for 24 hours. When the cell confluence reached ˜60-70%, the cells were rinsed three times with phosphate buffered saline (PBS). The cells were then treated with AMA, 4a and 4b at 25 μM concentration for 4 hours. The cells were then stained using 100 nM MitoTracker Green FM (Cell Signaling Technology, Danvers, Mass., USA) for 40 minutes. Thereafter, all images were recorded and counted using a 40× oil objective. To ensure accurate intensity measurements, the exposure time and laser time were kept the same. Data are reported as the mean of three independent experiments.

A549 lung cancer cells = assay: MTT toxicity assay; assay type: cell-based, human; details: 24 h incubation at 1, 5 and 10 μM, FIG. 9b
Method: Exponentially growing A459 cells were harvested and plated in 96-well plates at a concentration of 2×10^4 cells/well. After incubation at 37° C. for 24 h, the cells were treated with compounds AMA, 4a and 4b at final concentrations of 1, 5 and 10 μM for an additional 24 hours. Then 20 μL of MTT (5 mg/mL) was added to each well and the plates were incubated at 37° C. for 4 h. The supernatants were discarded, and 100 μL of DMSO was added to each well. The absorbance was recorded at 490 nm after 15 min. Cell viability was determined by the following formula: cell viability (%)=100−(ODnegative control−ODtreatment)×100%/(ODnegative control−ODbackground). Data are reported as the mean of three independent experiments, each run was carried out quintuplicate.

SMILES: CC[N+]1=C(/C=C/c2ccc(OCc3ccc([N+](=O)[O-])cc3)c(/C=C/C3=[N+](CC)c4ccccc4C3(C)C)c2)C(C)(C)c2ccccc21 [probe 2c]
- rate of activation by E. coli nitroreductase, compared between probes (E. coli nitroreductase; 10 μM probe, PBS pH 7.4, 0.5 mM NADH, NTR 1 μg mL^-1): much faster than the activation of 2a
- development of fluorescence (activation) after addition of E. coli nitroreductase (E. coli nitroreductase; 10 μM probe, PBS pH 7.4, 0.5 mM NADH, NTR 1 μg mL^-1, excitation 572 nm, emission 703 nm, 25° C.): good activation
- dependence of fluorescence / activation on probe concentration (E. coli nitroreductase; PBS 25° C., 0.5 mM NADH, E. coli NTR 1 μg mL^-1): linear correlation between fluorescence intensity and probe concentration; also recorded: increased with increasing substrate concentration
- activation by DT diaphorase versus nitroreductase, with or without NADH (DT diaphorase): significant activation occurred only in the presence of the nitroreductase+NADH
- colocalization of probe fluorescence with MitoTracker Green (mitochondria) ([1]; 10 μM 2c, 100 nM MitoTracker Green FM, DAPI): colocalized to mitochondria; also recorded: complete overlap of the red and green signals
- red fluorescence signal (release of QCy7 dye 3) in live A549 cells ([1]; 10 μM probe, 4 hours incubation, no hypoxic condition): activation of 2c by mitochondrial nitroreductase; also recorded: appearance of a red signal
- concentration dependence of the signal in A549 cells ([1]; different times and concentrations, FIG. 16): concentration dependent

SMILES: CCCCCC[C@H]1C(=O)O[C@H](C)[C@H](NC(=O)c2cccc(NC=O)c2O)C(=O)O[C@@H](C)[C@@H]1OC(=O)CC(C)C [AMA, antimycin A, reference compound]
- quantum yield of the released AMA [2]: ~0.06
- inhibition of NADH oxidase ([3]; 50 nM concentration): essentially completely
- NADH oxidase inhibitory activity (qualitative comparison) [3]: potent inhibitor
- localization of AMA fluorescence relative to mitochondria in A549 cells [4]: did not fully colocalize with mitochondria

SMILES: CCCCCC[C@H]1C(=O)O[C@H](C)[C@H](NC(=O)c2cccc(NC=O)c2OCc2ccc([N+](=O)[O-])cc2)C(=O)O[C@@H](C)[C@@H]1OC(=O)CC(C)C [Compound 4a, 2-O-(p-Nitrobenzyl)AMA]
- NADH oxidase inhibitory activity (qualitative comparison) [3]: much weaker activity
- cytotoxicity toward A549 cancer cells (qualitative comparison) (A549 lung cancer cells): much more cytoxic toward A549 cancer cells than 4b; also recorded: considerably more cytotoxic than exogenously added AMA
- release of AMA (appearance of AMA fluorescence, λem ~425 nm) in live A549 cells [4]: AMA was released from 4a
- localization of AMA fluorescence relative to mitochondria in A549 cells [4]: Free AMA appeared exclusively in the mitochondria; also recorded: localized to the mitochondria

SMILES: CCCCCC[C@H]1C(=O)O[C@H](C)[C@H](NC(=O)c2cccc(NC=O)c2OCc2ccccc2)C(=O)O[C@@H](C)[C@@H]1OC(=O)CC(C)C [Compound 4b, 2-O-Benzyl-AMA]
- NADH oxidase inhibitory activity (qualitative comparison) [3]: much weaker activity
- release of AMA (appearance of AMA fluorescence, λem ~425 nm) in live A549 cells [4]: no significant release of AMA; also recorded: not to a significant extent
